Measurements published in PubChem BioAssay (NCI).
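Following 48 hours of exposure in 96-well plates, responses at five concentrations were used to interpolate endpoints linearly. TGI is the concentration that stops growth completely.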

Key:
Experiment in all cases: NCI tumour cell line growth inhibition, 48 h
[1] = tested on: HOP-18 NSCLC
[2] = tested on: DLD-1 colon
[3] = tested on: KM20L2 colon
[4] = tested on: LXFL 529 NSCLC
[5] = tested on: RXF-631 renal
[6] = tested on: SNB-78 CNS
[7] = tested on: P388 leukemia
[8] = tested on: P388/ADR leukemia
[9] = tested on: SN12K1 renal

Structure (SMILES) | TGI [1] | TGI [2] | TGI [3] | TGI [4] | TGI [5] | TGI [6] | TGI [7] | TGI [8] | TGI [9]
O=[N+]([O-])c1ccccc1S(=O)(=O)c1ccccc1 | > 100 µM | > 100 µM | > 100 µM | > 100 µM | 47 µM | – | – | – | –
COP(=O)(OC)C(NC(=O)C(F)(F)F)(c1ccccc1)C(F)(F)F (configuration not stated) | > 100 µM | > 100 µM | > 100 µM | – | – | – | – | – | –
CC1(C)O[C@@H](CCl)C[C@H](C#N)O1 | > 100 µM | > 100 µM | > 100 µM | – | – | > 100 µM | – | – | –
CCCC(C)n1c(C)nc2c1C(=O)c1ccccc1C2=O (configuration not stated) | – | > 100 µM | > 100 µM | > 100 µM | – | > 100 µM | – | – | –
O=C1C=C2SC3C[C@@]24CC1[N+]1=c2c4c(c(O)c4c2=C(C=N4)CC1)N3 | 18.9 µM | 5.12 µM | 3.81 µM | – | – | 5.88 µM | 4.15 µM | 23.1 µM | 3.76 µM
O=S(OC12CC3CC(CC(C3)C1)C2)c1cc(Cl)cc(Cl)c1OCc1ccccc1 (configuration not stated) | – | > 100 µM | – | > 100 µM | > 100 µM | > 100 µM | – | – | –
O=C1c2ccccc2C(=O)c2c(O)c(NCCCNCCO)cc(O)c21 | 17.5 µM | 19.8 µM | – | 29.8 µM | 25 µM | 39.8 µM | – | – | –
